Several values for one entry are separate records, joined by “and”; a condition that tells them apart may be missing. Identical values can stand only once. Like-named read-outs stand apart in the source and are kept apart here.
Assays:
P. falciparum D6 = assay: Malaria SYBR Green I-Based Fluorescence (MSF) assay, blood stages; assay type: cell-based; conditions: Plasmodium falciparum, D6; blood stages, 72 hours, drug-sensitive strain; read-out: IC50 (µM) (±SD) for strain: D6
Procedure: (§1) MSF assays were performed in vitro with four P. falciparum strains: D6 (drug sensitive), TM91-C235 (multidrug resistant), W2 (CQ resistant), and C2B (multidrug resistant against ATQ). Parasite strains were kept continuously in long-term cultures as described ([22]). Pre-dosed 384-well plates containing […] serial dilutions of CB compounds (0.0098–20 µM) were prepared using the Tecan Freedom Evo liquid handling system (Tecan USA, Inc., Durham, NC, USA) and were stored at 4°C. A CQ control plate (2,000 ng/mL) was included in each run. Based on modifications of previous methods ([17], [55]), late-ring or early-trophozoite stages were cultured in pre-dosed plates with 0.3% parasitemia and 2% hematocrit. Cultures were incubated for 72 hours at 37°C in a controlled atmosphere of 5% CO2, 5% O2, and 90% N2. Lysis buffer, consisting of 20 mM Tris HCl, 5 mM EDTA, 1.6% Triton X, 0.016% saponin, and SYBR Green I dye at a 20X concentration (Invitrogen #S-7567), was added to the plates for a final 10X SYBR Green concentration. Plates containing cell culture media and lysis buffer were incubated in the dark at 25°C for 24 hours, and the relative fluorescence units (RFU) were measured using the Tecan Genios Plus (Tecan USA, Inc.).

P. falciparum C2B = assay: as above; assay type: cell-based; conditions: Plasmodium falciparum, 72 h, read-out: IC50 (µM) (±SD) for strain: C2B
Procedure: as §1

P. falciparum TM91c235 = assay: as above; assay type: cell-based; conditions: Plasmodium falciparum; blood stages, 72 hours, multidrug resistant strain; read-out: IC50 (µM) (±SD) for strain: TM91c235
Procedure: as §1

P. falciparum W2 = assay: as above; assay type: cell-based; conditions: Plasmodium falciparum, W2; blood stages, 72 hours, CQ resistant strain; read-out: IC50 (µM) (±SD) for strain: W2
Procedure: as §1

[1] = system: P. falciparum oocyst formation in Anopheles stephensi mosquitoes; assay: P. falciparum oocyst inhibition assay (SMFA); assay type: in vivo, Plasmodium falciparum; conditions: for Prevalence: infection prevalence in mosquitoes; for Median (oocysts) / Median I % / Prevalence % / Prevalence I %: pooled from two representative experiments
Procedure: As previously described, P. falciparum infections were performed using SMFA with NF54 gametocyte cultures diluted to 0.3% stage V gametocytemia ([62]). Infected blood (O+ human 45% hematocrit in serum) was offered to mosquitoes for 30 minutes, and engorged mosquitoes were maintained on a 10% corn syrup solution supplemented by four concentrations of CB compounds (1, 2.5, 5, and 10 µM) at […] ([63]), with DMSO serving as a control. Eight days post-infection, mosquito midguts were dissected and stained with 0.2% mercurochrome for 30 minutes, and oocysts were quantified under a light microscope ([63]).

COc1cccc(/C=N/NC(=O)c2nc(-c3ccccc3)cc(-c3ccccc3)n2)c1O [CB-41]
IC50 (P. falciparum D6): 2.26 µM
IC50 (P. falciparum C2B): 2.73 µM
IC50 (P. falciparum TM91c235): 2.26 µM
IC50 (P. falciparum W2): 2.71 µM
Median oocyst # ([1]; 1 μM compound): 45
Mean oocyst # excluding zeros (Range) ([1]; 1 μM compound, P. falciparum midgut infection in An. stephensi mosquitoes): 53 (0-136)
Prevalence ([1]; 1 μM compound): 85
inhibition at 1 µM ([1]; 1 μM compound, vs DMSO control, read-out: % inhibition (prevalence)): 14%
Median (oocysts) ([1]; 1 µM): 45
Median I % ([1]; 1 µM): 18%
Prevalence % ([1]; 1 µM): 85%
Prevalence I % ([1]; 1 µM): 14%
Mean oocyst # excluding zeros (Range) ([1]; 1 μM, single experiments): 53 (0-136) and 77 (0-156)
Median oocyst # ([1]; 1 μM, single experiments): 45 and 63
Median oocyst # ([1]; 2.5 μM compound): 44
Mean oocyst # excluding zeros (Range) ([1]; 2.5 μM compound, P. falciparum midgut infection in An. stephensi mosquitoes): 51 (0-123)
Prevalence ([1]; 2.5 μM compound): 83
inhibition at 2.5 µM ([1]; 2.5 μM compound, oocyst number vs DMSO control, read-out: % inhibition (mean)): 2%
inhibition at 2.5 µM ([1]; 2.5 μM compound, oocyst number vs DMSO control, read-out: % inhibition (median)): 19%
inhibition at 2.5 µM ([1]; 2.5 μM compound, vs DMSO control, read-out: % inhibition (prevalence)): 17%
Median (oocysts) ([1]; 2.5 µM): 44
Median I % ([1]; 2.5 µM): 19%
Prevalence % ([1]; 2.5 µM): 83%
Prevalence I % ([1]; 2.5 µM): 17%
% inhibition (mean) ([1]; 2.5 μM, single experiments): 9%
% inhibition (median) ([1]; 2.5 μM, single experiments): 30%
Mean oocyst # excluding zeros (Range) ([1]; 2.5 μM, single experiments): 47 (0-92) and 55 (0-123) and 64 (0-156)
Median oocyst # ([1]; 2.5 μM, single experiments): 40 and 48
inhibition at 2.5 µM ([1]; 2.5 μM, single experiments, read-out: % inhibition (mean)): 10%
inhibition at 2.5 µM ([1]; 2.5 μM, single experiments, read-out: % inhibition (median)): 26%
Median oocyst # ([1]; 5 μM compound): 32
Mean oocyst # excluding zeros (Range) ([1]; 5 μM compound, P. falciparum midgut infection in An. stephensi mosquitoes): 49 (0-108)
Prevalence ([1]; 5 μM compound): 71
inhibition at 5 µM ([1]; 5 μM compound, oocyst number vs DMSO control, read-out: % inhibition (mean)): 6%
inhibition at 5 µM ([1]; 5 μM compound, oocyst number vs DMSO control, read-out: % inhibition (median)): 41%
inhibition at 5 µM ([1]; 5 μM compound, vs DMSO control, read-out: % inhibition (prevalence)): 28%
Median (oocysts) ([1]; 5 µM): 32
Median I % ([1]; 5 µM): 41%
Prevalence % ([1]; 5 µM): 71%
Prevalence I % ([1]; 5 µM): 28%
Mean oocyst # excluding zeros (Range) ([1]; 5 μM, single experiments): 45 (0-108) and 52 (0-107) and 70 (0-144)
inhibition at 5 µM ([1]; 5 μM, single experiments, read-out: % inhibition (mean)): 15%
Median oocyst # ([1]; 10 μM compound): 35
Mean oocyst # excluding zeros (Range) ([1]; 10 μM compound, P. falciparum midgut infection in An. stephensi mosquitoes): 44 (0-128)
Prevalence ([1]; 10 μM compound): 82
inhibition at 10 µM ([1]; 10 μM compound, oocyst number vs DMSO control, read-out: % inhibition (mean)): 15%
inhibition at 10 µM ([1]; 10 μM compound, vs DMSO control, read-out: % inhibition (prevalence)): 18%
Median (oocysts) ([1]; 10 µM): 35
Median I % ([1]; 10 µM): 36%
Prevalence % ([1]; 10 µM): 82%
Prevalence I % ([1]; 10 µM): 18%
% inhibition (prevalence) ([1]; 10 μM, single experiments): 45%
Mean oocyst # excluding zeros (Range) ([1]; 10 μM, single experiments): 37 (0-102) and 50 (0-128) and 59 (0-146)
Median oocyst # ([1]; 10 μM, single experiments): 27 and 44
inhibition at 10 µM ([1]; 10 μM, single experiments, read-out: % inhibition (prevalence)): 46%
median inhibition percentage ([1]; 1 to 10 µM): below 50%
prevalence inhibition percentage ([1]; 1 to 10 µM): below 50%
oocyst formation inhibition ([1]; 1 to 10 µM, midguts dissected 8 days after feeding): inhibited midgut oocyst formation in a dose-dependent manner

— article PMC11620517, “Novel hydrazone compounds with broad-spectrum antiplasmodial activity and synergistic interactions with antimalarial drugs” (Antimicrobial Agents and Chemotherapy, 2024)
